According to article PMC12668308, “A Novel Antimalarial Agent that Inhibits Protein Synthesis in Plasmodium falciparum” (Angewandte Chemie (International Ed. in English), 2025):
Read-outs that look alike come from different tables or passages of the source.

Key:
[1] = test system: P. falciparum NF54 strain; assay: [3H]-hypoxanthine incorporation assay, asexual blood stage; assay type: cell-based, Plasmodium falciparum; conditions: Plasmodium falciparum
Experimental: (§1) P. falciparum asexual blood stage parasites were cultured in human red blood cells (RBC, Blutspende SRK, Zurich) at a hematocrit of 5% in RPMI 1640 medium. The RPMI 1640 medium (ThermoFisher Scientific #51800−043) was supplemented with the following: 24 mM NaHCO3 (pH 7.3, Sigma-Aldrich #31437−500G-R), 25 mM Hepes (Sigma-Aldrich #H4034−500G), 0.36 mM hypoxanthine (Sigma-Aldrich # H9377−25G), 100 µg mL^-1 neomycin (Sigma-Aldrich #N6386−100G) and 0.5% Albumax II (Thermo Fisher #11021−045). Additionally, 2 mM choline chloride (279 mg/L, Sigma-Aldrich #C7527−100G) was added to the culture to block the induction of sexual commitment as described. ^[31^] The RPMI 1640 medium and components were dissolved in water (Milli-Q purified), stirred for at least 3 h, and then sterile filtered (0.22 μm pore size) with a bottle top filter (Corning # 431118). Parasite cultures were maintained in an atmosphere of 3% O2, 4% CO2, and 93% N2 in air-tight chambers at 37 °C. The [^3H]-hypoxanthine incorporation assay was used to test compound activity in the specific parasite lines as described.^[32^] Briefly, compounds were dissolved in DMSO (10 mM) and diluted in a hypoxanthine-free culture medium. A limiting dilution was performed over a 64-fold range (6-step twofold dilution) in a 96-well plate in duplicates. For every starting concentration, a limiting dilution was performed over a 64-fold range (6-step twofold dilution) in a 96-well plate in two biological duplicates. Parasites were added at 100 µL to each well containing the compound to obtain a final parasitemia of 0.3% and haematocrit of 1.25%. The plates were incubated for 48 h before 0.25 µCi of [^3H]-hypoxanthine was added per well for an additional 24 h. Parasites were harvested on a glass-fiber filter with a Microbeta FilterMate cell harvester (Perkin Elmer, Waltham, USA) and radioactivity was counted using a MicroBeta2 liquid scintillation counter (Perkin Elmer, Waltham, US). […] The fifty percent inhibitory concentration (IC50) was calculated by using nonlinear, four parameter (variable slope) curve fitting as described ^[33^] after importing into GraphPad Prism (version 8.3.0).

[2] = test system: Dd2 DDD107458 (Dd2 + pfeEF2); assay: [3H]-hypoxanthine incorporation assay; assay type: cell-based, Plasmodium falciparum; conditions: Plasmodium falciparum, DD2, 72 h
Experimental: (§2) ^[a]72-h [^3H] hypoxanthhine incorporation assay. Data is expressed as mean±s.d..
(§3) P. falciparum asexual blood stage parasites were cultured in human red blood cells (RBC, Blutspende SRK, Zurich) at a hematocrit of 5% in RPMI 1640 medium. The RPMI 1640 medium (ThermoFisher Scientific #51800−043) was supplemented with the following: 24 mM NaHCO3 (pH 7.3, Sigma-Aldrich #31437−500G-R), 25 mM Hepes (Sigma-Aldrich #H4034−500G), 0.36 mM hypoxanthine (Sigma-Aldrich # H9377−25G), 100 µg mL^-1 neomycin (Sigma-Aldrich #N6386−100G) and 0.5% Albumax II (Thermo Fisher #11021−045). Additionally, 2 mM choline chloride (279 mg/L, Sigma-Aldrich #C7527−100G) was added to the culture to block the induction of sexual commitment as described. ^[31^] The RPMI 1640 medium and components were dissolved in water (Milli-Q purified), stirred for at least 3 h, and then sterile filtered (0.22 μm pore size) with a bottle top filter (Corning # 431118). Parasite cultures were maintained in an atmosphere of 3% O2, 4% CO2, and 93% N2 in air-tight chambers at 37 °C. The [^3H]-hypoxanthine incorporation assay was used to test compound activity in the specific parasite lines as described.^[32^] Briefly, compounds were dissolved in DMSO (10 mM) and diluted in a hypoxanthine-free culture medium. A limiting dilution was performed over a 64-fold range (6-step twofold dilution) in a 96-well plate in duplicates. For every starting concentration, a limiting dilution was performed over a 64-fold range (6-step twofold dilution) in a 96-well plate in two biological duplicates. Parasites were added at 100 µL to each well containing the compound to obtain a final parasitemia of 0.3% and haematocrit of 1.25%. The plates were incubated for 48 h before 0.25 µCi of [^3H]-hypoxanthine was added per well for an additional 24 h. Parasites were harvested on a glass-fiber filter with a Microbeta FilterMate cell harvester (Perkin Elmer, Waltham, USA) and radioactivity was counted using a MicroBeta2 liquid scintillation counter (Perkin Elmer, Waltham, US). The results were recorded, processed by subtraction of the mean background signal obtained from the uninfected RBC controls and expressed as percentage of untreated controls. The fifty percent inhibitory concentration (IC50) was calculated by using nonlinear, four parameter (variable slope) curve fitting as described ^[33^] after importing into GraphPad Prism (version 8.3.0).

[3] = test system: Dd2 DSM265 (Dd2 + pfdhodh); assay: [3H]-hypoxanthine incorporation assay; assay type: cell-based, Plasmodium falciparum; conditions: Plasmodium falciparum, 72 h
Experimental: as §2, §3

[4] = test system: Dd2 ELQ300 (Dd2 + pfcytb); assay: [3H]-hypoxanthine incorporation assay; assay type: cell-based, Plasmodium falciparum; conditions: Plasmodium falciparum, DD2, 72 h
Experimental: as §2, §3

[5] = test system: Dd2 Fosmidomycin (Dd2 + pfdxr); assay: [3H]-hypoxanthine incorporation assay; assay type: cell-based, Plasmodium falciparum; conditions: Plasmodium falciparum, DD2, 72 h
Experimental: as §2, §3

[6] = test system: Dd2 GNF156 (Dd2 + pfcarl); assay: [3H]-hypoxanthine incorporation assay; assay type: cell-based, Plasmodium falciparum; conditions: Plasmodium falciparum, DD2, 72 h
Experimental: as §2, §3

[7] = test system: Dd2 MMV390048 (Dd2 + pfpI4k); assay: [3H]-hypoxanthine incorporation assay; assay type: cell-based, Plasmodium falciparum; conditions: Plasmodium falciparum, DD2, 72 h
Experimental: as §2, §3

[8] = test system: Dd2 NITD609 (Dd2 + pfatp4); assay: [3H]-hypoxanthine incorporation assay; assay type: cell-based, Plasmodium falciparum; conditions: Plasmodium falciparum, DD2, 72 h
Experimental: as §2, §3

P. falciparum Dd2 = assay: [3H]-hypoxanthine incorporation assay; assay type: cell-based, Plasmodium falciparum; conditions: Plasmodium falciparum, DD2, 72 h
Experimental: as §2, §3

P. falciparum K1 = assay: [3H]-hypoxanthine incorporation assay; assay type: cell-based, Plasmodium falciparum; conditions: Plasmodium falciparum; K1; 72-h assay; mean±s.d.; read-out: IC50
Experimental: as §2, §3

Dd2b2^31-R1.1 = assay: [3H]-hypoxanthine incorporation assay; assay type: cell-based, Plasmodium falciparum; conditions: Plasmodium falciparum, read-out: mean IC50 value ± s.d.
Experimental: as §1
(§4) 31 was used for resistance selection studies using the strain Dd2b2 (kindly provided by David Fidock). Resistance selection was done as described in ^[34^]. As summarized in Table S3, an initial inoculum of 2 x 10^9 asexual blood stage parasites (at 2-2.5% parasitemia) were cultured in three independent flasks. […] Cloning via limiting dilution was performed to obtain resistant clones for further characterization as described in section 2.2.5.

Dd2b2^31-R1.2 = assay: [3H]-hypoxanthine incorporation assay; assay type: cell-based, Plasmodium falciparum; conditions: Plasmodium falciparum, read-out: mean IC50 value ± s.d.
Experimental: as §1, §4

Dd2b2^31-R2.1 = assay: [3H]-hypoxanthine incorporation assay; assay type: cell-based, Plasmodium falciparum; conditions: Plasmodium falciparum, read-out: mean IC50 value ± s.d.
Experimental: as §1, §4

Dd2b2^31-R3.1 = assay: [3H]-hypoxanthine incorporation assay; assay type: cell-based, Plasmodium falciparum; conditions: Plasmodium falciparum, read-out: mean IC50 value ± s.d.
Experimental: as §1, §4

Dd2b2^WT = assay: [3H]-hypoxanthine incorporation assay; assay type: cell-based, Plasmodium falciparum; conditions: Plasmodium falciparum, 72 h, read-out: Parent (Dd2b2^WT) IC50
Experimental: as §1, §4

3D7^WT = assay: [3H]-hypoxanthine incorporation assay; assay type: cell-based; conditions: Plasmodium falciparum, 3D7; 72-h assay; mean±s.d.; read-out: 3D7^WT IC50
Experimental: ^[a] 72-h [^3H] hypoxanthhine incorporation assay; Data is expressed as mean±s.d.. The assay was performed in three independent biological experiments, each in biological duplicates.
as §3

PfIspD = PfIspD (Plasmodium falciparum, UniProt W7KNE8); assay: PfIspD inhibition; assay type: biochemical; conditions: mean ± s.d.
PfIspD, sequence (W7KNE8 entry or part of it): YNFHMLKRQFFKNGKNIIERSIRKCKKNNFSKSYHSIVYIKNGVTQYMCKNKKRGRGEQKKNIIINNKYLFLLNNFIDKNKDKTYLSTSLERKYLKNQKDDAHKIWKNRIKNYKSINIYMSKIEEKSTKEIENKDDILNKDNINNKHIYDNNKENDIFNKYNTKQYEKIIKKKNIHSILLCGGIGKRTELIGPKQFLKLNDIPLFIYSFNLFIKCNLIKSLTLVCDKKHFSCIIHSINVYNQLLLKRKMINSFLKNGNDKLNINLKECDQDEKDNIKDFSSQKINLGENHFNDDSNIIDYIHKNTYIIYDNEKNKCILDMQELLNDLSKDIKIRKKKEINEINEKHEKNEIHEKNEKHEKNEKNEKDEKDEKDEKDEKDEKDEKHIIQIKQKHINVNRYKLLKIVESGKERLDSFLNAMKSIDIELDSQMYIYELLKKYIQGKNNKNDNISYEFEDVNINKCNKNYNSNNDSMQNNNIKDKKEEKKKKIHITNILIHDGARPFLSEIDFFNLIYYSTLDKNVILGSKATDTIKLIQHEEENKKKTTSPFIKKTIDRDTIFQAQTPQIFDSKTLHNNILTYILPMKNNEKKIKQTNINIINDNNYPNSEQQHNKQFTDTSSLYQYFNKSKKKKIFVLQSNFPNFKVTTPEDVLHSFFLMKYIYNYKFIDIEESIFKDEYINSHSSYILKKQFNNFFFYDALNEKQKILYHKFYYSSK

[9] = test system: mRNA translation in NF54 trophozoite-stage parasites; assay: Surface sensing of translation (SUnSET) assay; assay type: cell-based, Plasmodium falciparum; conditions: trophozoites 30–35 hpi; 31 at 3x, 50x, 100x IC50; 34 and pyrimethamine at 3x IC50
Experimental: To confirm the role of 31 as a translation inhibitor, the surface sensing of translation (SUnSET) assay was employed. This involves incubating the culture with a translation inhibitor, puromycin, a structural analogue of aminoacyl tRNA. Puromycin is incorporated in the nascent polypeptide chain and prevents further elongation. When puromcyin is used in sub‐lethal concentrations, incorporation of puromycin in neosynthesized protein correlates with the levels of mRNA translation (Figure 3c, lane2).^[ [27] ^] […] This trend was further confirmed by the quantified western blot signals (Figures 3d and S4C) that are consistent with the iSPP profiling results.
SUnSET: The SUnSET assay was done as described in. ^[27^]Tightly synchronized NF54 wild type parasites were treated with the compounds for 4h at 30-35 hpi (trophozoite stage). The following compounds and amounts used were: cycloheximide (3xIC50, 1,2 µM; Calbiochem), pyrimethamine (3xIC50, 21 nM; MedChemExpress), 34 (3xIC50, 12 µM), and 31 (3xIC50, 12 nM; 50xIC50, 200 nM; 100xIC50, 400 nM). Parasites were incubated with 1 µg mL^-1 (Sigma P8833) for 1 h at 37 °C and saponin lysis was performed.
Saponin lysis and Western blot: Saponin lysis was done on infected RBC at ~5% parasitemia to lyse erythrocytes. Parasite cultures were centrifuged at 1,200 g for 5 min at room temperature. Once the supernatant was discarded, 10 volumes of ice-cold 0.1% (w/v) saponin (Calbiochem 558255, dissolved in PBS, and filtered with 0,22) was added, incubated on ice for 10 min and centrifuged for 2,272 g for 15 min at 4 °C. […] The membrane was washed 3 times in PBS-T (3 min incubation in each washing step) and the signal was detected using the chemiluminescent substrate SuperSignal West Pico Plus (Thermo Scientific, REF 34580) and the imaging system Vilber Fusion FX7 Edge 17.10 SN. Quantification of Western blot signal was done by measuring the integrated density of each lane using ImageJ analysis software (version 1.54p). […]

C[C@H]1[C@H](OC(=O)CCC(=O)O)O[C@@H]2O[C@@]3(C)CC[C@H]4[C@H](C)CC[C@@H]1[C@@]24OO3 [Artesunate, artesunate, reference compound]
IC50 ([1]; NF54, 72 h, Table S2, NF54 sensitive strain, 72-h assay, mean±s.d., read-out: IC50): 0.4 ± 0.07 nM
IC50 [2]: 0.2 ± 0.2 nM
IC50 [3]: 0.2 ± 0.01 nM
IC50 [4]: 0.2 ± 0.01 nM
IC50 [5]: 0.2 ± 0.01 nM
IC50 [6]: 0.2 ± 0.02 nM
IC50 [7]: 0.3 ± 0.1 nM
IC50 [8]: 0.2 ± 0.01 nM
IC50 (P. falciparum Dd2): 0.3 ± 0.2 nM
IC50 (P. falciparum K1): 0.2 ± 0.01 nM
IC50 (Dd2b2^31-R1.1): 1.6 ± 0.3 nM
IC50 (Dd2b2^31-R1.2): 2.2 ± 0.6 nM
IC50 (Dd2b2^31-R2.1): 2.6 ± 1.5 nM
IC50 (Dd2b2^31-R3.1): 1.2 ± 0.6 nM
IC50 (Dd2b2^WT): 0.5 ± 0.1 nM
IC50 (3D7^WT): 0.6 ± 0.1 nM

O=C(Nc1cc(S(=O)(=O)N2CCCC2)ccc1O)c1cccc(Oc2ccccc2)c1 [Compound 1, N-(2-Hydroxy-5-(pyrrolidin-1-ylsulfonyl)phenyl)-3-phenoxybenzamide]
IC50 ([1]; NF54, asexual blood stage, mean ± s.d., read-out: PfNF54 IC50 ± s.d.): 592 ± 77.6 nM
IC50 (PfIspD): 15000 ± 4000 nM

CCc1nc(N)nc(N)c1-c1ccc(Cl)cc1 [Pyrimethamine, reference compound]
mRNA translation (puromycin incorporation) [9]: did not reduce mRNA translation
